Assay type in all cases: functional
Assay [1] relates to Candida albicans. In words: Antifungal activity against Candida albicans SC5314 assessed as inhibition of fungal growth by CLSI M27-A3 guidelines based method.
Assay [2] has as its system Candida albicans. In words: Antifungal activity against Candida albicans GIM 2.194 assessed as inhibition of fungal growth by CLSI M27-A3 guidelines based method.
Another assay relates to Candida tropicalis. In words: Antifungal activity against Candida tropicalis GIM 2.183 assessed as inhibition of fungal growth by CLSI M27-A3 guidelines based method.
The subject of a further assay is Candida parapsilosis. Kind of assay: Antifungal activity against Candida parapsilosis GIM 2.190 assessed as inhibition of fungal growth by CLSI M27-A3 guidelines based method. Conditions: Lodderomyces parapsilosis.
For another assay, the system named is Nakaseomyces glabratus. Kind of assay: Antifungal activity against Candida glabrata assessed as inhibition of fungal growth by CLSI M27-A3 guidelines based method.
The test system of another assay is Pichia kudriavzevii. Kind of assay: Antifungal activity against Candida krusei GIM 2.1 assessed as inhibition of fungal growth by CLSI M27-A3 guidelines based method.
For a further assay, the system named is Cryptococcus neoformans. In words: Antifungal activity against Cryptococcus neoformans CGMCC 2.3161 assessed as inhibition of fungal growth by CLSI M27-A3 guidelines based method.

≈ marks a conversion by molar mass, not a printed value.

On to `CN(Cc1ccc(C#Cc2cncnc2)cc1)CC(O)(Cn1cncn1)c1ccc(F)cc1F` (stereo unspecified), for which the MIC80 came to 0.025 µg/mL (≈ 0.0543 µM) with Candida albicans [1]; 0.05 µg/mL (≈ 0.109 µM) in the assay on Candida albicans [2]; 0.025 µg/mL (≈ 0.0543 µM) with Candida tropicalis; 0.025 µg/mL (≈ 0.0543 µM) in the assay with Candida parapsilosis; 3.2 µg/mL (≈ 6.95 µM) in the assay on Nakaseomyces glabratus; 0.8 µg/mL (≈ 1.74 µM) with Pichia kudriavzevii. Also, the MIC80 in the assay with Cryptococcus neoformans worked out at 0.4 µg/mL (≈ 0.869 µM).

With `CN(Cc1ccc(C#Cc2ccc(C#N)cc2)cc1)CC(O)(Cn1cncn1)c1ccc(F)cc1F` (stereo unspecified), the MIC80 in the assay with Candida albicans [1] turned out to be 0.013 µg/mL (≈ 0.0269 µM); in the assay with Candida albicans [2], 0.006 µg/mL (≈ 0.0124 µM); with Candida tropicalis it was 0.013 µg/mL (≈ 0.0269 µM); with Candida parapsilosis, 0.006 µg/mL (≈ 0.0124 µM); in the assay on Nakaseomyces glabratus, 0.1 µg/mL (≈ 0.207 µM); with Pichia kudriavzevii, 0.1 µg/mL (≈ 0.207 µM). The MIC80 in the assay with Cryptococcus neoformans was 0.05 µg/mL (≈ 0.103 µM).

Regarding `CN(Cc1ccc(C#Cc2ccc(C=O)cc2)cc1)CC(O)(Cn1cncn1)c1ccc(F)cc1F` (stereo unspecified), the MIC80 in the assay with Candida albicans [1] stood at 0.013 µg/mL (≈ 0.0267 µM); in the assay on Candida albicans [2] it was 0.013 µg/mL (≈ 0.0267 µM); in the assay with Candida tropicalis, 0.013 µg/mL (≈ 0.0267 µM); with Candida parapsilosis, 0.013 µg/mL (≈ 0.0267 µM); in the assay on Nakaseomyces glabratus it was 0.1 µg/mL (≈ 0.206 µM); in the assay with Pichia kudriavzevii, 0.05 µg/mL (≈ 0.103 µM). Besides, the MIC80 in the assay on Cryptococcus neoformans came to 0.05 µg/mL (≈ 0.103 µM).

Consider `Cc1ccccc1C#Cc1ccc(CN(C)CC(O)(Cn2cncn2)c2ccc(F)cc2F)cc1` (stereo unspecified), for which the MIC80 was determined as 0.013 µg/mL (≈ 0.0275 µM) in the assay with Candida albicans [1]; 0.006 µg/mL (≈ 0.0127 µM) in the assay with Candida albicans [2]; 0.006 µg/mL (≈ 0.0127 µM) in the assay on Candida tropicalis; 0.013 µg/mL (≈ 0.0275 µM) in the assay with Candida parapsilosis; 0.1 µg/mL (≈ 0.212 µM) in the assay with Nakaseomyces glabratus; 0.05 µg/mL (≈ 0.106 µM) with Pichia kudriavzevii. The MIC80 with Cryptococcus neoformans was found to be 0.025 µg/mL (≈ 0.0529 µM).

For the compound `CCc1ccc(C#Cc2ccc(CN(C)CC(O)(Cn3cncn3)c3ccc(F)cc3F)cc2)cc1` (stereo unspecified), the MIC80 came to 0.013 µg/mL (≈ 0.0267 µM) with Candida albicans [1]; 0.013 µg/mL (≈ 0.0267 µM) in the assay with Candida albicans [2]; 0.013 µg/mL (≈ 0.0267 µM) in the assay on Candida tropicalis; 0.013 µg/mL (≈ 0.0267 µM) in the assay on Candida parapsilosis; 0.1 µg/mL (≈ 0.206 µM) in the assay with Nakaseomyces glabratus; 0.05 µg/mL (≈ 0.103 µM) with Pichia kudriavzevii. Besides, the MIC80 in the assay with Cryptococcus neoformans amounted to 0.025 µg/mL (≈ 0.0514 µM).

Regarding `CN(Cc1ccc(C#Cc2ccc(I)cc2)cc1)CC(O)(Cn1cncn1)c1ccc(F)cc1F` (stereo unspecified), the MIC80 in the assay with Candida albicans [1] came out at 0.006 µg/mL (≈ 0.0103 µM); with Candida albicans [2], 0.006 µg/mL (≈ 0.0103 µM); in the assay with Candida tropicalis it was 0.013 µg/mL (≈ 0.0222 µM); in the assay with Candida parapsilosis it was 0.006 µg/mL (≈ 0.0103 µM); with Nakaseomyces glabratus, 0.01 µg/mL (≈ 0.0171 µM); in the assay on Pichia kudriavzevii it was 0.03 µg/mL (≈ 0.0513 µM). The MIC80 in the assay with Cryptococcus neoformans was 0.013 µg/mL (≈ 0.0222 µM).

Take `CN(Cc1ccc(C#Cc2ccccc2F)cc1)CC(O)(Cn1cncn1)c1ccc(F)cc1F` (stereo unspecified): the MIC80 was 0.006 µg/mL (≈ 0.0126 µM) in the assay on Candida albicans [1]; 0.013 µg/mL (≈ 0.0273 µM) in the assay with Candida albicans [2]; 0.006 µg/mL (≈ 0.0126 µM) with Candida tropicalis; 0.006 µg/mL (≈ 0.0126 µM) with Candida parapsilosis; 0.05 µg/mL (≈ 0.105 µM) in the assay with Nakaseomyces glabratus; 0.01 µg/mL (≈ 0.021 µM) with Pichia kudriavzevii. Besides, the MIC80 with Cryptococcus neoformans stood at 0.006 µg/mL (≈ 0.0126 µM).

Consider `CN(Cc1ccc(C#Cc2ccc(Br)cc2)cc1)CC(O)(Cn1cncn1)c1ccc(F)cc1F` (stereo unspecified), for which the MIC80 in the assay with Candida albicans [1] came out at 0.013 µg/mL (≈ 0.0242 µM); in the assay on Candida albicans [2], 0.013 µg/mL (≈ 0.0242 µM); with Candida tropicalis it was 0.025 µg/mL (≈ 0.0465 µM); with Candida parapsilosis, 0.006 µg/mL (≈ 0.0112 µM); in the assay with Nakaseomyces glabratus, 0.03 µg/mL (≈ 0.0558 µM); in the assay with Pichia kudriavzevii, 0.01 µg/mL (≈ 0.0186 µM). For the same compound, in the assay with Cryptococcus neoformans, the MIC80 amounted to 0.013 µg/mL (≈ 0.0242 µM).

On to `COc1ccc(C#Cc2ccc(CN(C)CC(O)(Cn3cncn3)c3ccc(F)cc3F)cc2)cc1` (stereo unspecified), for which the MIC80 in the assay with Candida albicans [1] worked out at 0.013 µg/mL (≈ 0.0266 µM); in the assay with Candida albicans [2], 0.013 µg/mL (≈ 0.0266 µM); with Candida tropicalis it was 0.013 µg/mL (≈ 0.0266 µM); with Candida parapsilosis, 0.013 µg/mL (≈ 0.0266 µM); in the assay with Nakaseomyces glabratus it was 0.8 µg/mL (≈ 1.64 µM); in the assay on Pichia kudriavzevii, 0.2 µg/mL (≈ 0.409 µM). The MIC80 with Cryptococcus neoformans was found to be 0.05 µg/mL (≈ 0.102 µM).

For `CN(Cc1ccc(C#Cc2ccc(Br)cc2F)cc1)CC(O)(Cn1cncn1)c1ccc(F)cc1F` (stereo unspecified), the MIC80 stood at 0.006 µg/mL (≈ 0.0108 µM) in the assay with Candida albicans [1]; 0.006 µg/mL (≈ 0.0108 µM) with Candida albicans [2]; 0.006 µg/mL (≈ 0.0108 µM) in the assay on Candida tropicalis; 0.006 µg/mL (≈ 0.0108 µM) with Candida parapsilosis; 0.03 µg/mL (≈ 0.054 µM) in the assay with Nakaseomyces glabratus; 0.03 µg/mL (≈ 0.054 µM) in the assay with Pichia kudriavzevii. Also, the MIC80 in the assay with Cryptococcus neoformans came out at 0.025 µg/mL (≈ 0.045 µM).

`CN(Cc1ccc(C#Cc2ccc(O)cc2)cc1)CC(O)(Cn1cncn1)c1ccc(F)cc1F` (stereo unspecified): the MIC80 in the assay on Candida albicans [1] worked out at 0.013 µg/mL (≈ 0.0274 µM); in the assay with Candida albicans [2], 0.025 µg/mL (≈ 0.0527 µM); in the assay with Candida tropicalis, 0.025 µg/mL (≈ 0.0527 µM); in the assay with Candida parapsilosis, 0.025 µg/mL (≈ 0.0527 µM); in the assay on Nakaseomyces glabratus, 3.2 µg/mL (≈ 6.74 µM); with Pichia kudriavzevii it was 3.2 µg/mL (≈ 6.74 µM). Also, the MIC80 with Cryptococcus neoformans came out at 0.2 µg/mL (≈ 0.421 µM).

In the case of `CN(Cc1ccc(C#Cc2ccc([N+](=O)[O-])cc2F)cc1)CC(O)(Cn1cncn1)c1ccc(F)cc1F` (stereo unspecified), the MIC80 in the assay on Candida albicans [1] is 0.006 µg/mL (≈ 0.0115 µM); with Candida albicans [2], 0.006 µg/mL (≈ 0.0115 µM); in the assay with Candida tropicalis, 0.006 µg/mL (≈ 0.0115 µM); with Candida parapsilosis, 0.006 µg/mL (≈ 0.0115 µM); with Nakaseomyces glabratus, 0.03 µg/mL (≈ 0.0575 µM); with Pichia kudriavzevii, 0.05 µg/mL (≈ 0.0959 µM). For the same compound, the MIC80 in the assay with Cryptococcus neoformans is 0.025 µg/mL (≈ 0.0479 µM).

For the compound `CN(Cc1ccc(C#Cc2ccc(Cl)cc2)cc1)CC(O)(Cn1cncn1)c1ccc(F)cc1F` (stereo unspecified), the MIC80 is 0.006 µg/mL (≈ 0.0122 µM) in the assay with Candida albicans [1]; 0.013 µg/mL (≈ 0.0264 µM) in the assay with Candida albicans [2]; 0.013 µg/mL (≈ 0.0264 µM) with Candida tropicalis; 0.006 µg/mL (≈ 0.0122 µM) with Candida parapsilosis; 0.05 µg/mL (≈ 0.101 µM) in the assay on Nakaseomyces glabratus; 0.03 µg/mL (≈ 0.0609 µM) in the assay with Pichia kudriavzevii. Further, the MIC80 with Cryptococcus neoformans was determined as 0.013 µg/mL (≈ 0.0264 µM).

The term MIC80 denotes an inhibitory concentration at the 80% level, which refers to growth in some studies and to a panel of isolates in others.

The record behind these values is ChEMBL document CHEMBL6092180 (Eur J Med Chem, 2024).
